Test results taken from patent publication US7582803B2 (Amgen Inc., priority 2005, dated 2009).

Key:
islet cells = assay: Insulin secretion assay, human islet cells; format: cell-based; conditions: KRBH with 11.2 mM glucose, insulin by SPA, read-out: EC50, stimulation of insulin secretion from islet cells
Experimental: Human islets were isolated from cadaveric donors. Islets were treated with trypsin (0.25% (w/v) and cells were seeded in 96-well plates containing 3,000 cells per well. Cells were cultured in Roswell Park Memorial Institute (RMPI) media containing 10% fetal bovine serum.
For determination of insulin secretion, media was removed from islet cells and replaced with Krebs-Ringer bicarbonate buffer containing 10 mM HEPES (KRBH) and 2 mM glucose. After one hour incubation, media was replaced with KRBH containing 11.2 mM glucose and test compounds. Insulin released into the medium from the islet cells was measured using scintillation proximity assay (SPA).

human GPR40 = target: T1, human GPR40 (Homo sapiens, UniProt O14842); assay: Cell-based aequorin assay; conditions: CHO cells stably transfected with GPR40 and aequorin; 0.01% HSA; aequorin luminescence; read-out: Relative EC50
T1 construct: expressed in transfected cells; host or cells: CHO cells
Experimental: Cell-based aequorin assays were employed to characterize the modulatory activity of compounds on the GPR40 signaling pathway. In an exemplary assay, CHO cells were stably transfected with both GPR40 and Aequorin (Euroscreen). Cells were detached from the tissue culture dish with 2 mL of trypsin (0.25% (w/v)). Trypsinization was halted with 28 mL of Hanks Buffered Salt Solution containing 20 mM Hepes (H/HBSS) and 0.01% fatty acid-free human serum albumin (HSA). Coelantrazine is added to 1 ug/mL, and the cells were incubated for 2 hours at room temperature. Compounds were dissolved in DMSO for preparation of 10 mM stock solutions. Compounds were diluted in H/HBSS containing 0.01% HSA. Serial dilutions of the test compounds were prepared to determine dose response.
Aequorin luminescence measurements were made using an EG&G Berthold 96-well luminometer, and the response was measured over a 20 second interval after cells and compounds were mixed. The maximum relative light units was plotted to determine dose response. The EC50 (effective concentration to reach 50% maximal response) was determined from the dose response plot.
Table 1 presents representative data (EC50 values) obtained for exemplary compounds of the invention for the relative activation of human GPR40. […]

T1 sequence (O14842 whole entry): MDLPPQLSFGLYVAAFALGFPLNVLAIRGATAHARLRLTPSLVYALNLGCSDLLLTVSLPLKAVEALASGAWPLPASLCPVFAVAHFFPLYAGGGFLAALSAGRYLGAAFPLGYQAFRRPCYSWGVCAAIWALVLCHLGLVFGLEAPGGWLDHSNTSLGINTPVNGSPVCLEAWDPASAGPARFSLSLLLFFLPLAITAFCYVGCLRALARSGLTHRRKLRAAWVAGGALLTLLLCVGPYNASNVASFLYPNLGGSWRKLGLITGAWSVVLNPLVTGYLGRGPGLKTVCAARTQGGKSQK

Row | EC50 (islet cells) [nM] | EC50 (human GPR40) [nM] | Structure (SMILES)
1 | < 1000 | 10 to 100 | CC#C[C@@H](CC(=O)O)c1ccc(OC2CCc3cc(-c4cccs4)ccc32)cc1 (stereo partly drawn) [Example 4, (3S)-3-[4-(5-Thiophen-2-yl-indan-1-yloxy)-phenyl]-hex-4-ynoic acid]
2 | < 1000 | 1000 to 10000 | CC#C[C@@H](CC(=O)O)c1ccc(OC2CCc3c(-c4cccc(OCC)c4)cccc32)cc1 (stereo partly drawn) [Example 9, (3S)-3-{4-[4-(3-Ethoxy-phenyl)-indan-1-yloxy]-phenyl}-hex-4-ynoic acid]
3 |  | 10 to 100 | Cn1nnnc1[C@@H](CC(=O)O)c1ccc(OCc2ccc3c(c2)C(C)(C)CCC3(C)C)cc1 [Example 81, (S)-3-(1-Methyl-1H-tetrazol-5-yl)-3-[4-(5,5,8,8-tetramethyl-5,6,7,8-tetrahydro-naphthalen-2-ylmethoxy)-phenyl]-propionic acid]
4 |  | 10 to 100 | CC1(C)CCC(C)(C)c2cc(COc3ccc([C@H](CC(=O)O)c4ncco4)cc3)ccc21 [Example 82, (S)-3-Oxazol-2-yl-3-[4-(5,5,8,8-tetramethyl-5,6,7,8-tetrahydro-naphthalen-2-ylmethoxy)-phenyl]-propionic acid]
5 |  | > 10000 | Cn1cnnc1[C@H](CC(=O)O)c1ccc(OCc2ccc3c(c2)C(C)(C)CCC3(C)C)cc1 [Example 83]
6 |  | 100 to 1000 | Cn1cnnc1[C@@H](CC(=O)O)c1ccc(OCc2ccc3c(c2)C(C)(C)CCC3(C)C)cc1 [Example 84]
7 |  | 100 to 1000 | CC1(C)CCC(C)(C)c2cc(COc3ccc(C(CC(=O)O)C4=NOCC4)cc3)ccc21 (stereo not drawn) [Example 85, 3-(4,5-Dihydroisoxazol-3-yl)-3-(4-((5,5,8,8-tetramethyl-5,6,7,8-tetrahydronaphthalen-2-yl)methoxy)phenyl)propanoic acid]
8 |  | 100 to 1000 | Cn1ccnc1[C@@H](CC(=O)O)c1ccc(OCc2ccc3c(c2)C(C)(C)CCC3)cc1 [Example 86, (S)-3-(4-((8,8-Dimethyl-5,6,7,8-tetrahydronaphthalen-2-yl)methoxy)phenyl)-3-(1-methyl-1H-imidazol-2-yl)propanoic acid]
9 |  | > 10000 | C[C@H](Oc1ccc([C@H](CC(=O)O)c2nccn2C)cc1)c1ccc2c(c1)C(C)(C)CCC2(C)C [Example 87, (3S)-3-(1-Methyl-1H-imidazol-2-yl)-3-(4-(1-(5,5,8,8-tetramethyl-5,6,7,8-tetrahydronaphthalen-2-yl)ethoxy)phenyl)propanoic acid]
10 |  | 100 to 1000 | CCC1(CC)CCC(C)(C)c2ccc(COc3ccc([C@H](CC(=O)O)c4nccn4C)cc3)cc21 [Example 88, (S)-3-(4-((8,8-Diethyl-5,5-dimethyl-5,6,7,8-tetrahydronaphthalen-2-yl)methoxy)phenyl)-3-(1-methyl-1H-imidazol-2-yl)propanoic acid]
11 |  | 100 to 1000 | CC1(C)CCC(C)(C)c2cc(COc3ccc([C@H](CC(=O)O)c4ccc(F)cc4)cc3)ccc21 [Example 89, (S)-3-(4-Fluorophenyl)-3-(4-((5,5,8,8-tetramethyl-5,6,7,8-tetrahydronaphthalen-2-yl)methoxy)phenyl)propanoic acid]
12 |  | 1000 to 10000 | CC1(C)CCC(C)(C)c2cc(COc3ccc([C@@H](CC(=O)O)c4ccc(F)cc4)cc3)ccc21 [Example 90, (R)-3-(4-Fluorophenyl)-3-(4-((5,5,8,8-tetramethyl-5,6,7,8-tetrahydronaphthalen-2-yl)methoxy)phenyl)propanoic acid]
13 |  | 100 to 1000 | Cn1ccnc1[C@@H](CC(=O)O)c1ccc(OCc2cc3c(cc2Br)C(C)(C)CCC3(C)C)cc1 [Example 91, (S)-3-(4-((3-Bromo-5,5,8,8-tetramethyl-5,6,7,8-tetrahydronaphthalen-2-yl)methoxy)phenyl)-3-(1-methyl-1H-imidazol-2-yl)propanoic acid]
14 |  | > 10000 | Cn1ccnc1[C@@H](CC(=O)O)c1ccc(OCc2cc3c(cc2C2CC2)C(C)(C)CCC3(C)C)cc1 [Example 92, (S)-3-(4-((3-Cyclopopyl-5,5,8,8-tetramethyl-5,6,7,8-tetrahydronaphthalen-2-yl)methoxy)phenyl)-3-(1-methyl-1H-imidazol-2-yl)propanoic acid]
15 |  | 100 to 1000 | Cc1cc2c(cc1COc1ccc([C@H](CC(=O)O)c3nccn3C)cc1)C(C)(C)CCC2(C)C [Example 93, (S)-3-(4-((3-Methyl-5,5,8,8-tetramethyl-5,6,7,8-tetrahydronaphthalen-2-yl)methoxy)phenyl)-3-(1-methyl-1H-imidazol-2-yl)propanoic acid]
16 |  | 100 to 1000 | CCc1cc2c(cc1COc1ccc([C@H](CC(=O)O)c3nccn3C)cc1)C(C)(C)CCC2(C)C [Example 94, (S)-3-(4-((3-Ethyl-5,5,8,8-tetramethyl-5,6,7,8-tetrahydronaphthalen-2-yl)methoxy)phenyl)-3-(1-methyl-1H-imidazol-2-yl)propanoic acid]
